{"source": "patent US20130123481A1", "about": "“MODIFIED NUCLEOSIDES, NUCLEOTIDES, AND NUCLEIC ACIDS, AND USES THEREOF” (MODERNA THERAPEUTICS, priority 2011, published 2013)", "key": {"HeLa cells": {"test_system": "HeLa cells", "experiment": "In vitro Screening in HeLa Cells - luciferase (RLU)", "type": "cell-based, human", "set-up": "key to Protein (Luc; HeLa): the protein production of HeLa is judged by “+,” “+/−” and “−”; the protein production of HeLa is judged by “+,” “+/−” and “−”; the protein production of HeLa is judged by “+,” “+/−” and “−”", "experimental": "The 2′Fluoro-modified mRNA were then transfected into HeLa cells to assess protein production in a cell context and the same mRNA were also assessed in a cell-free rabbit reticulocyte system. A control of unmodified luciferase (natural luciferase) was used for both transcription experiments, a control of untreated and mock transfected (Lipofectamine 2000 alone) were also analyzed for the HeLa transfection and a control of no RNA was analyzed for the rabbit reticulysates.\nFor the HeLa transfection experiments, the day before transfection, 20,000 HeLa cells (ATCC no. CCL-2; Manassas, Va.) were harvested by treatment with Trypsin-EDTA solution (LifeTechnologies, Grand Island, N.Y.) and seeded in a total volume of 100 ul EMEM medium (supplemented with 10% FCS and 1× Glutamax) per well in a 96-well cell culture plate (Corning, Manassas, Va.). The cells were grown at […] in 5% CO2 atmosphere overnight. […] Lipofectamine 2000 (LifeTechnologies, Grand Island, N.Y.) was used as transfection reagent and 0.2 ul were diluted in 10 ul final volume of OPTI-MEM. After […] of incubation at room temperature, both solutions were combined and incubated an additional 15 minute at room temperature. Then the 20 ul combined solution was added to the 100 ul cell culture medium containing the HeLa cells and incubated at room temperature. After 18 to 22 hours of incubation cells expressing luciferase were lysed with 100 ul of Passive Lysis Buffer (Promega, Madison, Wis.) according to manufacturer instructions. Aliquots of the lysates were transferred to white opaque polystyrene 96-well plates (Corning, Manassas, Va.) and combined with 100 ul complete luciferase assay solution (Promega, Madison, Wis.). The lysate volumes were adjusted or diluted until no more than 2 mio relative light units (RLU) per well were detected for the strongest signal producing samples and the RLUs for each chemistry tested are shown in Table 42. The plate reader was a BioTek Synergy H1 (BioTek, Winooski, Vt.). The background signal of the plates without reagent was about 200 relative light units per well.\nTo evaluate using of 2′fluoro-modified mRNA in combination with other modification a series of mRNA were transcribed using either wild-type T7 polymerase (non-fluoro-containing compounds) or using mutant T7 polymerases (fluyoro-containing compounds) as described in Example 86. All modified mRNA were tested by in vitro transfection in HeLa cells.\nAfter 18 to 22 hours of incubation cells expressing luciferase were lysed with 100 ul of Passive Lysis Buffer (Promega, Madison, Wis.) according to manufacturer instructions. Aliquots of the lysates were transferred to white opaque polystyrene 96-well plates (Corning, Manassas, Va.) and combined with 100 ul complete luciferase assay solution (Promega, Madison, Wis.). The lysate volumes were adjusted or diluted until no more than 2 mio relative light units (RLU) per well were detected for the strongest signal producing samples and the RLUs for each chemistry tested are shown in Table 44. The plate reader was a BioTek Synergy H1 (BioTek, Winooski, Vt.). The background signal of the plates without reagent was about 200 relative light units per well."}, "[1]": {"test_system": "Rabbit Reticulocyte Lysate", "experiment": "In Vitro Screening in Rabbit Reticulocyte Lysates - luciferase (RLU)", "type": "biochemical", "conditions": "250 ng 2′-fluoro-containing luciferase mRNA, 60 minutes, 30° C., background about 160 RLU", "experimental": "The diluted luciferase was added to 40 ul of freshly prepared Rabbit Reticulocyte Lysate and the in vitro translation reaction was done in a standard 1.5 mL polypropylene reaction tube (Thermo Fisher Scientific, Waltham, Mass.) at 30° C. in a dry heating block. The translation assay was done with the Rabbit Reticulocyte Lysate (nuclease-treated) kit (Promega, Madison, Wis.) according to the manufacturer's instructions. The reaction buffer was supplemented with a one-to-one blend of provided amino acid stock solutions devoid of either Leucine or Methionine resulting in a reaction mix containing sufficient amounts of both amino acids to allow effective in vitro translation.\nAfter 60 minutes of incubation, the reaction was stopped by placing the reaction tubes on ice. […] The volumes of the in vitro translation reactions were adjusted or diluted until no more than 2 mio relative light units (RLUs) per well were detected for the strongest signal producing samples and the RLUs for each chemistry tested are shown in Table 29. The plate reader was a BioTek Synergy H1 (BioTek, Winooski, Vt.). […]\nThe 2′Fluoro-modified mRNA were then transfected into HeLa cells to assess protein production in a cell context and the same mRNA were also assessed in a cell-free rabbit reticulocyte system. […]"}, "wild-type T7 polymerase": {"target": "wild-type T7 polymerase (Escherichia phage T7, UniProt P00573)", "sequence (P00573 whole entry)": "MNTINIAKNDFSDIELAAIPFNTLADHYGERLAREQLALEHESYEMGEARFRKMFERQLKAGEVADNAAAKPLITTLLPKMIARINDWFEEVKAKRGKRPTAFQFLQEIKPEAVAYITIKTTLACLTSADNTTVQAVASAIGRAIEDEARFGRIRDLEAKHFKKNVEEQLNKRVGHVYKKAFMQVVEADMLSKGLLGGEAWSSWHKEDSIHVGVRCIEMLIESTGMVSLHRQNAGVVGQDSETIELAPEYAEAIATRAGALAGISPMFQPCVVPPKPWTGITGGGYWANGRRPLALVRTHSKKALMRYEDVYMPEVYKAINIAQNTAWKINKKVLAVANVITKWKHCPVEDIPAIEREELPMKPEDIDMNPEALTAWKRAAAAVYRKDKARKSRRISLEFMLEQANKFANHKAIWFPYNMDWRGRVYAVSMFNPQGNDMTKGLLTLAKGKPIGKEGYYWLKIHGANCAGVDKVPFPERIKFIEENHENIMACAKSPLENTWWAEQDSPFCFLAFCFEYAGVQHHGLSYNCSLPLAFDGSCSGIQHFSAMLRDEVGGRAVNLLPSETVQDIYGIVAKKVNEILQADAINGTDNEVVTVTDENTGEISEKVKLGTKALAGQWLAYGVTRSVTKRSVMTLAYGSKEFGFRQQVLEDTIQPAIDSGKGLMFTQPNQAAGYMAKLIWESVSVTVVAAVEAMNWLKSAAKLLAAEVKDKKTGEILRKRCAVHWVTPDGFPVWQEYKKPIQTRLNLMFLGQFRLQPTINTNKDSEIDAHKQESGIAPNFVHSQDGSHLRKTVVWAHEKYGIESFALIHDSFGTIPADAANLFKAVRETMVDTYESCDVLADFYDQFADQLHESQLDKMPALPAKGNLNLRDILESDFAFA", "experiment": "In Vitro Transcription with Wild-Type T7 Polymerase (transcription and capping yield)", "conditions": "Table 48 non-naturally occurring, Pass/Fail", "experimental": "(§1) The luciferase and G-CSF modified mRNA were also subjected to an enzymatic capping reaction and each modified mRNA capping reaction was evaluated for yield by spectrophometic measurement (OD260) and correct size assessed using bioanalyzer."}, "[2]": {"target": "T1, mutant T7 polymerase (Durascribe T7 Transcription kit) (Escherichia phage T7, UniProt P00573, Y639F)", "T1 construct": "purchased Epicentre, Madison, Wis; DS010925", "T1 sequence (P00573 whole entry Y639F)": "as the sequence (P00573 whole entry) above, with Y639F counted along it", "conditions": "Table 48 non-naturally occurring, in vitro transcription using mutant T7 polymerase", "experimental": "as §1"}, "female BALB/C mice": {"test_system": "female BALB/C mice", "experiment": "In Vivo Detection of Innate Immune Response Study - human G-CSF protein in serum", "conditions": "human G-CSF in mouse serum; I.M.; 8 hours after dosing", "experimental": "Blood is collected at 8 hours after dosing."}, "[3]": {"test_system": "PBMC, interferon-alpha (IFN-alpha)", "experiment": "2′Fluoro Chemistries in PBMC - IFN-alpha production", "type": "cell-based, human", "conditions": "G-CSF modified mRNA, ELISA, average of 3 donors"}, "[4]": {"test_system": "PBMC, tumor necrosis factor-alpha (TNF-alpha)", "experiment": "2′Fluoro Chemistries in PBMC - TNF-alpha production", "type": "cell-based, human", "conditions": "G-CSF modified mRNA, ELISA, average of 2 donors"}, "[5]": {"test_system": "female BALB/C mice, interferon-alpha (IFN-alpha)", "conditions": "mouse, in vivo"}, "[6]": {"test_system": "human PBMC, tumor necrosis factor alpha (TNF-alpha)"}}}
{"compound": "Natural Luciferase: natural luciferase mRNA (SEQ ID NO: 3), Cap1 [reference compound]", "values": [{"measurement": "RLU", "setting": "HeLa cells; 83 ng 2′fluoro-containing luciferase mRNA, Lipofectamine 2000, HeLa cells", "value": "133,853.5 RLU"}, {"measurement": "RLU", "setting": "HeLa cells; 83 ng luciferase mRNA with combination of modifications, HeLa cells, 18 to 22 hours, background about 200 RLU", "value": "30,801 RLU"}, {"measurement": "RLU", "setting": "[1]", "value": "2,159,968 RLU"}]}
{"compound": "2′-F-adenosine", "values": [{"measurement": "IVT (G-CSF), first result", "setting": "wild-type T7 polymerase; G-CSF mRNA in vitro transcription", "value": "Fail/Fail**"}, {"measurement": "IVT (Luc), first result", "setting": "wild-type T7 polymerase; luciferase mRNA in vitro transcription", "value": "Fail"}, {"measurement": "IVT (G-CSF), second result **", "setting": "[2]", "value": "Fail/Fail**"}, {"measurement": "IVT (Luc), second result **", "setting": "[2]", "value": "Pass"}, {"measurement": "Protein (Luc; HeLa)", "setting": "HeLa cells; Table 48 non-naturally occurring, ** mutant T7 polymerase", "value": "−**"}]}
{"compound": "CCOCc1nc2c(N)nc3ccccc3c2n1CC(C)(C)O", "note": "[Compound R-848]", "values": [{"measurement": "G-CSF protein", "setting": "female BALB/C mice", "value": 3.4, "unit": "pg/mL"}, {"measurement": "IFN-alpha: 3 Donor Average", "setting": "[3]", "value": 45, "unit": "pg/mL"}, {"measurement": "TNF-alpha: 2 Donor Average (pg/ml)", "setting": "[4]", "value": "8,235 pg/ml"}, {"measurement": "IFN-alpha expression", "setting": "[5]", "value": 40.97, "unit": "pg/mL"}, {"measurement": "TNF-alpha: 3 Donor Average", "setting": "[6]", "value": 1477, "unit": "pg/mL"}]}
